Structures can show the parent of a compound that is named as a salt.

In general, melting point refers to the temperature of the solid-liquid transition. With `Cc1nc(NC(C2CC2)C2CC2)c2c(C)[nH]c(-c3ccc(Cl)cc3Cl)c2n1` (as salt: HCl) [Example 6], the melting point fell in the range of 218 to 222 °C. For `CCC(CC)Nc1nc(C)nc2c1C(C)(O)N=C2c1ccc(Cl)cc1Cl` (centres unmarked) [Example 7, 7-(2,4-Dichloro-phenyl)-4-(1-ethyl-propylamino)-2,5-dimethyl-5H-pyrrolo[3,4-d]pyrimidin-5-ol], the melting point fell in the range of 184 to 185 °C.

Values taken from patent US6734185B2, “Pyrrolo[3,4-d]pyrimidines as corticotropin releasing factor (CRF) antagonists” (Bristol-Myers Squibb Pharma Company, priority 2000, dated 2004).
